Laboratory results: US9688691B2, “Macrocyclic quinazole derivatives and their use as MTKI” (Janssen Pharmaceutica NV, priority 2004, dated 2017)

Legend:
Assay type in all cases: biochemical
cSRC (h) = cSRC (h) (Homo sapiens, UniProt P12931); experiment: Kinase profiling, glass-fiber filter technology: cSRC; settings: test concentration of 10^−6 M; read-out: cSRC inhibition score
Protocol: (§1) The in vitro inhibition of a panel of kinases was assessed using the glass-fiber filter technology as described by Davies, S. P. et al., Biochem J. (2000), 351; p. 95-105.
(§2) In the glass-fiber filter technology the activity of the kinase of interest is measured using an appropriate substrate that is incubated with the aforementioned kinase protein in the presence of (^33P) radiolabeled ATP. (^33P) Phosporylation of the substrate is subsequently measured as radioactivity bound on a glassfiber-filter.
(§3) All kinases are pre-diluted to a 10× working concentration prior to addition into the assay. The composition of the dilution buffer for each kinase is detailed below.
(§4) All substrates are dissolved and diluted to working stocks in de-ionised water.
(§5) In a final reaction volume of 25 μl, cSRC (h) (5-10 mU) is incubated with 8 mM MOPS pH 7.0, 0.2 mM EDTA, 250 μM KVEKIGEGTYGVVYK (Cdc2 peptide), 10 mM MgAcetate and [γ-^33P-ATP] (specific activity approx. 500 cpm/pmol, concentration as required). The reaction is initiated by the addition of the MgATP mix. After incubation for 40 minutes at room temperature, the reaction is stopped by the addition of 5 μl of a 3% phosphoric acid solution.
10 μl of the reaction is then spotted onto a P30 filtermat and washed three times for 5 minutes in 75 mM phosphoric acid and once in methanol prior to drying and scintillation counting.

Fyn human = Fyn human (Homo sapiens, UniProt P06241); experiment: Kinase profiling, glass-fiber filter technology: Fyn; settings: test concentration of 10^−6 M; read-out: Fyn inhibition score
Sequence of Fyn human (P06241 whole entry): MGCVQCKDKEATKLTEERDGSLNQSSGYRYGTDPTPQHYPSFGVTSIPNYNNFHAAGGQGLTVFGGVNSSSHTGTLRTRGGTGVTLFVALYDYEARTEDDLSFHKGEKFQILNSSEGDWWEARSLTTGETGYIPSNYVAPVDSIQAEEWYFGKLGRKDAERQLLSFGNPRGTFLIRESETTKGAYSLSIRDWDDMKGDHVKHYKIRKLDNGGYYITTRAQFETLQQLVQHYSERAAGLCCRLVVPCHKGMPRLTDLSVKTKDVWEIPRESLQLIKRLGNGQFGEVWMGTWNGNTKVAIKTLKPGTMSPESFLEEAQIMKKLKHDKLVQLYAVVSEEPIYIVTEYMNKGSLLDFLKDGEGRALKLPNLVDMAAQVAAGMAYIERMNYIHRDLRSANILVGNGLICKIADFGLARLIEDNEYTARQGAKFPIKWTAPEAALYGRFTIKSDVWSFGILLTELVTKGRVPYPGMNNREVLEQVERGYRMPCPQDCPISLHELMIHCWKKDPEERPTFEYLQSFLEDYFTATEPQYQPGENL
Protocol: as §1, §2, §3, §4
as §5, with “Fyn human” for “cSRC (h)”, “50” for “8”, “Tris” for “MOPS”, “7.5, 0.1” for “7.0, 0.2”, “EGTA, 0.1 mM Na3VO4,” for “EDTA,”, “solution. 10 μl of the reaction is then spotted onto a P30 filtermat and washed three times for 5 minutes in 75 mM phosphoric acid and once in methanol prior to drying and scintillation counting.” for “solution.”

Lyn (h) = Lyn (h) (Homo sapiens, UniProt P07948); experiment: Kinase profiling, glass-fiber filter technology: Lyn; settings: test concentration of 10^−6 M; read-out: Lyn inhibition score
Sequence of Lyn (h) (P07948 whole entry): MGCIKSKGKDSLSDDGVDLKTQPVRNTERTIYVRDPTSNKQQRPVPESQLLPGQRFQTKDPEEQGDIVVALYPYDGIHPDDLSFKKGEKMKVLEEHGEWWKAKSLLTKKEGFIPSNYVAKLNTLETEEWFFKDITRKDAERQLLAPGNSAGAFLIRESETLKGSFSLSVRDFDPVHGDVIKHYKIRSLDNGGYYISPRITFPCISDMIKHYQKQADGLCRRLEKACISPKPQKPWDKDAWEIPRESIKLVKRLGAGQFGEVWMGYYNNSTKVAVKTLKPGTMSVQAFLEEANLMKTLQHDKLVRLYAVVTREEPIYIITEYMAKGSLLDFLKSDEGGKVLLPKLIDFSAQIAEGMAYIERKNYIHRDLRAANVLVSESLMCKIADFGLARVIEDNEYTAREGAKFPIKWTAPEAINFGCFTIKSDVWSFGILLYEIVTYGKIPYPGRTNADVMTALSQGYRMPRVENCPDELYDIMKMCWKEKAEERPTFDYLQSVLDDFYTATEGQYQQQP
Protocol: as §1, §2, §3, §4
(§6) In a final reaction volume of 25 μl, Lyn (h) (5-10 mU) is incubated with 50 mM Tris pH 7.5, 0.1 mM EGTA, 0.1 mM Na3VO4, 0.1% β-mercaptoethanol, 0.1 mg/ml poly(Glu, Tyr) 4:1, 10 mM MgAcetate and [γ-^33P-ATP] (specific activity approx. 500 cpm/pmol, concentration as required). The reaction is initiated by the addition of the MgATP mix. After incubation for 40 minutes at room temperature, the reaction is stopped by the addition of 5 μl of a 3% phosphoric acid solution. 10 μl of the reaction is then spotted onto a Filtermat A and washed three times for 5 minutes in 75 mM phosphoric acid and once in methanol prior to drying and scintillation counting.

Flt1 human = Flt1 human (Homo sapiens, UniProt P17948); experiment: Kinase profiling, glass-fiber filter technology: Flt1; settings: test concentration of 10^−6 M; read-out: Flt1 inhibition score
Sequence of Flt1 human (P17948 27-1338): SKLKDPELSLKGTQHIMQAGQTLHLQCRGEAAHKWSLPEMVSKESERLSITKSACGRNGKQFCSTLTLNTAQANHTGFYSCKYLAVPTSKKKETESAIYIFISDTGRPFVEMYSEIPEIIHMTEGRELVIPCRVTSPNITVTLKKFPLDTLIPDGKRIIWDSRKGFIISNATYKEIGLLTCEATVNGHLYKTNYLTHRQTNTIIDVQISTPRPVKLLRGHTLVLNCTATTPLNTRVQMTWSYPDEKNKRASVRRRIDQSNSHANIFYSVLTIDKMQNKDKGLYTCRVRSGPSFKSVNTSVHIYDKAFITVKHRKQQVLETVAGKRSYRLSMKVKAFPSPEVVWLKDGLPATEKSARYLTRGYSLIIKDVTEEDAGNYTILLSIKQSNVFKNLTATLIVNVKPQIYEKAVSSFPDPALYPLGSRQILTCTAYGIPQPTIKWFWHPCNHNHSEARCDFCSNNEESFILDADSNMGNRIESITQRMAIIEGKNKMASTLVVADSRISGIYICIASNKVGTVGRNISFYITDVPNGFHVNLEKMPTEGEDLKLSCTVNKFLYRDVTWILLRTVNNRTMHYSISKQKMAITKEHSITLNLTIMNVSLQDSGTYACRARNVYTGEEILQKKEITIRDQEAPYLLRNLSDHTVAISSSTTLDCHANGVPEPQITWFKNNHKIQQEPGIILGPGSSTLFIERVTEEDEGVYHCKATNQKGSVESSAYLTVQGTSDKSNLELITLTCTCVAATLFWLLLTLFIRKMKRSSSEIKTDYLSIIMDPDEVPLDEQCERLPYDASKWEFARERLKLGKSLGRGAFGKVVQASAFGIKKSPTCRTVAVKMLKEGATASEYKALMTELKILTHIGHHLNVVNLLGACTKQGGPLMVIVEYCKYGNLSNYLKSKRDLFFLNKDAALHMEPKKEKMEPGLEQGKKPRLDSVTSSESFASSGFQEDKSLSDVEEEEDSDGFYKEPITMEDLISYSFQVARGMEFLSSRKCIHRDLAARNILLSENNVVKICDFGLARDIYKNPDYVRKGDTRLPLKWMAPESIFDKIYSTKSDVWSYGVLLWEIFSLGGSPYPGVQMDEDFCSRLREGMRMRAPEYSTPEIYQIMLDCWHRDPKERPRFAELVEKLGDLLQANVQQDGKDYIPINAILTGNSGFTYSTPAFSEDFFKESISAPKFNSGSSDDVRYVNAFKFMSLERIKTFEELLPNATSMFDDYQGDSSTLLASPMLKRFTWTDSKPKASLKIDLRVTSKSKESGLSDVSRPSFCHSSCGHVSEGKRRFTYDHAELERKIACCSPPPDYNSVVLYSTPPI
Protocol: as §1, §2, §3, §4
as §6, with “μl, Flt1 human” for “μl, Lyn (h)”, “with 8” for “with 50”, “mM MOPS” for “mM Tris”, “pH 7.0, 0.2” for “pH 7.5, 0.1”, “mM EDTA, 250 μM KKKSPGEYVNIEFG,” for “mM EGTA, 0.1 mM Na3VO4, 0.1% β-mercaptoethanol, 0.1 mg/ml poly(Glu, Tyr) 4:1,”, “a P30 filtermat” for “a Filtermat A”

Blk (m) = Blk (m) (Mus musculus, UniProt P16277); experiment: Kinase profiling, glass-fiber filter technology: Blk; settings: test concentration of 10^−6 M; read-out: Blkl inhibition score
Protocol: as §1, §2, §3, §4
as §6, with “Blk (m)” for “Lyn (h)”, “[γ-33P-ATP]” for “[γ-^33P-ATP]”

ErbB4 (h) = ErbB4 (h) (Homo sapiens, UniProt Q15303); experiment: Kinase profiling, glass-fiber filter technology: ErbB4; settings: test concentration of 10^−6 M; read-out: ErbB4 inhibition score
Sequence of ErbB4 (h) (Q15303 26-1308): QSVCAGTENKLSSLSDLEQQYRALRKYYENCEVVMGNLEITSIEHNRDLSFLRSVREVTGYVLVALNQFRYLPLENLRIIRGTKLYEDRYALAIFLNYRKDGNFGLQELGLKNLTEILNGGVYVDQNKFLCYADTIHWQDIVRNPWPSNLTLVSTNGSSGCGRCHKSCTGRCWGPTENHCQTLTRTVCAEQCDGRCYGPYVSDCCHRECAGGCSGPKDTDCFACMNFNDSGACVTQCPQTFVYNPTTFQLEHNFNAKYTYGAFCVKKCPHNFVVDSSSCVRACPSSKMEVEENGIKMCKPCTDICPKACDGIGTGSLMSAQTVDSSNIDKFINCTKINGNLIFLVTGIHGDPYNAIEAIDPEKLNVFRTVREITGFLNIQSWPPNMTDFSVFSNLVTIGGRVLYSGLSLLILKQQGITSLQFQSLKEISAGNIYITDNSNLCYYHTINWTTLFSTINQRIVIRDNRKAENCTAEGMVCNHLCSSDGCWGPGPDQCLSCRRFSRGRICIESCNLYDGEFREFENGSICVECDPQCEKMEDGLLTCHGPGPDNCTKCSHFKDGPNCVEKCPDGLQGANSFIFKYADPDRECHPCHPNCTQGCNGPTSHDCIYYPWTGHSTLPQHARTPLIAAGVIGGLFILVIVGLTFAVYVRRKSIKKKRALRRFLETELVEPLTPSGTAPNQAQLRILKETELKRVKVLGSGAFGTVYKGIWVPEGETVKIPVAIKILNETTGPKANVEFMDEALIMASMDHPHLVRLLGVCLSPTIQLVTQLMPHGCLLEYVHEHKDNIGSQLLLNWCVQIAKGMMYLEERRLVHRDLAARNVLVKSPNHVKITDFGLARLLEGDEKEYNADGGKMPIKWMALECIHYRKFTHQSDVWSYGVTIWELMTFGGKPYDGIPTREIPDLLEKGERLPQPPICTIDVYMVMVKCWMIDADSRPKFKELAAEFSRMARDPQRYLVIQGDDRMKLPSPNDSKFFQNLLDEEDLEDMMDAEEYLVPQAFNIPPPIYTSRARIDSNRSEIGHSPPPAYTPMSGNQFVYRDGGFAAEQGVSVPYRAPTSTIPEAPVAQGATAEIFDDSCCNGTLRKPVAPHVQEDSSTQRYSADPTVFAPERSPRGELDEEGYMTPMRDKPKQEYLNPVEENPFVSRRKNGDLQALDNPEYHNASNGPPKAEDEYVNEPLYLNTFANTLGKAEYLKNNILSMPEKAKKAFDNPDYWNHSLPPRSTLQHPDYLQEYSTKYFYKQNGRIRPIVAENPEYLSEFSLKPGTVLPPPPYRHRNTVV
Protocol: as §1, §2, §3, §4
(§7) In a final reaction volume of 25 μl, ErbB4 (h) (5-10 mU) is incubated with 8 mM MOPS pH 7.0, 0.2 mM EDTA, 10 mM MnCl2, 0.1 mg/ml poly(Glu, Tyr) 4:1, 10 mM MgAcetate and [γ-33P-ATP] (specific activity approx. 500 cpm/pmol, concentration as required). The reaction is initiated by the addition of the MgATP mix. After incubation for 40 minutes at room temperature, the reaction is stopped by the addition of 5 μl of a 3% phosphoric acid solution. 10 μl of the reaction is then spotted onto a Filtermat A and washed three times for 5 minutes in 75 mM phosphoric acid and once in methanol prior to drying and scintillation counting.

Yes (h) = Yes (h) (Homo sapiens, UniProt P07947); experiment: Kinase profiling, glass-fiber filter technology: Yes; settings: test concentration of 10^−6 M; read-out: Yes inhibition score
Sequence of Yes (h) (P07947 whole entry): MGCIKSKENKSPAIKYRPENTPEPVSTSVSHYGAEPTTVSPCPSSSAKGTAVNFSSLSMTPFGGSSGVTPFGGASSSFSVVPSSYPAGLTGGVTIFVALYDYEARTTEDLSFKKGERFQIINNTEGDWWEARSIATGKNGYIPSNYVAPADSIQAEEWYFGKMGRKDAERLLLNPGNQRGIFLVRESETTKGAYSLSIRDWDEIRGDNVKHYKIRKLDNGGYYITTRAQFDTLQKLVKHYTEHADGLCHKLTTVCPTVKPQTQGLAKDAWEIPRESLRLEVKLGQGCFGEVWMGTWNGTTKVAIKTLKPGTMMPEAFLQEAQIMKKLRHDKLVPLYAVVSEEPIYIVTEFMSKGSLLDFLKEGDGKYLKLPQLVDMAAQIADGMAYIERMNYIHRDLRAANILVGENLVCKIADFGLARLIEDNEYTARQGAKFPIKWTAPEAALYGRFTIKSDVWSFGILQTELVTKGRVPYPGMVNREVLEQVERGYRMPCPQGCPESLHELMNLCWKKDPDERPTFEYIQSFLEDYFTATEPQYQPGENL
Protocol: as §1, §2, §3, §4
as §7, with “Yes” for “ErbB4”, “EDTA,” for “EDTA, 10 mM MnCl2,”, “[γ-^33P-ATP]” for “[γ-33P-ATP]”

Sequence of cSRC (h) (P12931 whole entry): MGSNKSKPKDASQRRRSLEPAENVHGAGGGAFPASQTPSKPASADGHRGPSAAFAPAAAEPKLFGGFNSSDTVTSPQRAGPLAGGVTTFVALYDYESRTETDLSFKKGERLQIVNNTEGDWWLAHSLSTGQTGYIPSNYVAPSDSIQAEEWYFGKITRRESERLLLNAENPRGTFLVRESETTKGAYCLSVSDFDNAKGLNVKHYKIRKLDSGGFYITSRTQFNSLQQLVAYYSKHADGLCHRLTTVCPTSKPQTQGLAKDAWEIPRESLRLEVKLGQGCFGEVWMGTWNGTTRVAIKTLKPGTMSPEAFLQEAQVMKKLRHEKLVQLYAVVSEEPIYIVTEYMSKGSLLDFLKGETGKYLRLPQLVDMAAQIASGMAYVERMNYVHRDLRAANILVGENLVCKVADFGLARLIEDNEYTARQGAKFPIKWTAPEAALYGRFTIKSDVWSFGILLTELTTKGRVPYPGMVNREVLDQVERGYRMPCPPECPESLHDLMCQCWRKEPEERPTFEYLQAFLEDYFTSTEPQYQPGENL

Row | inhibition at 1 µM (cSRC (h)) [%] | inhibition at 1 µM (Fyn human) [%] | inhibition at 1 µM (Lyn (h)) [%] | inhibition at 1 µM (Flt1 human) [%] | inhibition at 1 µM (Blk (m)) [%] | inhibition at 1 µM (ErbB4 (h)) [%] | inhibition at 1 µM (Yes (h)) [%] | SMILES
1 | > 80 | > 80 | > 80 |  |  | > 80 | > 80 | CN1CCCCCOc2cc3c(ncnc3cc2OC[C@H](O)CNCCOCCO)Nc2cc(Cl)c(F)cc2C1 [Compound 17]
2 | > 80 | > 80 | > 80 | 60 to 80 | 60 to 80 | 10 to 30 | > 80 | COCCOCCOc1cc2ncnc3c2cc1OCCCCCN(C)Cc1ccc(Br)cc1N3 [Int. 43]
3 | > 80 | > 80 |  | > 80 | > 80 | 60 to 80 | > 80 | CN1CCCCCOc2cc3c(ncnc3cc2OCCCN2CCS(=O)(=O)CC2)Nc2cc(Cl)c(F)cc2C1 [Compound 19]
4 | > 80 | > 80 | > 80 | 60 to 80 | > 80 | 60 to 80 | > 80 | CN1CCCCCOc2cc3c(ncnc3cc2OC[C@@H](O)CN2CCS(=O)(=O)CC2)Nc2cc(Br)ccc2C1 [Compound 12]
5 | > 80 |  | > 80 | > 80 | > 80 | > 80 | > 80 | CN1CCCCCOc2cc3c(ncnc3cc2OCCCNCCS(C)(=O)=O)Nc2cc(Br)ccc2C1 [Compound 14]
6 | 60 to 80 | 60 to 80 | 30 to 60 | 30 to 60 | 30 to 60 | 10 to 30 | > 80 | CN1CCCCCOc2cc3c(ncnc3cc2OCCCNC(=O)OC(C)(C)C)Nc2cc(Br)ccc2C1 [Compound 11]
7 | > 80 |  | > 80 | > 80 | > 80 | > 80 | > 80 | C#Cc1ccc2c(c1)Nc1ncnc3cc(OCCCNCCS(C)(=O)=O)c(cc13)OCCCCCN(C)C2 [Compound 20]
8 | > 80 |  | > 80 | > 80 | > 80 | > 80 | > 80 | CC(=O)NCCNCCCOc1cc2ncnc3c2cc1OCCCCCN(C)Cc1ccc(Br)cc1N3 [Compound 13]
9 | > 80 | > 80 | > 80 |  |  | > 80 | > 80 | CN1CCCCCOc2cc3c(ncnc3cc2OCCCNCCS(C)(=O)=O)Nc2cc(Cl)c(F)cc2C1 [Compound 18]

Second part, the compound before the results:

Row | SMILES | inhibition at 1 µM (cSRC (h)) [%] | inhibition at 1 µM (Fyn human) [%] | inhibition at 1 µM (Lyn (h)) [%] | inhibition at 1 µM (Flt1 human) [%] | inhibition at 1 µM (Blk (m)) [%] | inhibition at 1 µM (ErbB4 (h)) [%] | inhibition at 1 µM (Yes (h)) [%]
10 | C[C@H]1C(=O)NCCCOc2cc3c(ncnc3cc2OCCCN2CCN(C(=O)OC(C)(C)C)CC2)Nc2cc(Cl)c(F)cc2CN1C [Int. 16] | > 80 | > 80 | > 80 | 60 to 80 | > 80 | 10 to 30 | 
11 | COc1cc2ncnc3c2cc1OCCCN(CCN1CCOCC1)C(=O)CNC(=O)Cc1ccc(Cl)cc1N3 [Compound 15] | 30 to 60 | 30 to 60 | 60 to 80 | 10 to 30 | 30 to 60 | 10 to 30 | 60 to 80
12 | CC(=O)OCCN(C)CCCOc1cc2ncnc3c2cc1OCCCNC(=O)[C@H](C)N(C)Cc1cc(F)c(Cl)cc1N3 [Compound 2] | > 80 | > 80 |  | 30 to 60 | > 80 | 30 to 60 | > 80
13 | CC(=O)N(CCO)CCCOc1cc2ncnc3c2cc1OCCCNC(=O)[C@H](C)N(C)Cc1cc(F)c(Cl)cc1N3 [Compound 5] | > 80 | 60 to 80 | > 80 | 30 to 60 | > 80 | 10 to 30 | > 80
14 | CC(=O)NCCN1CCN(CCCOc2cc3ncnc4c3cc2OCCCNC(=O)[C@H](C)N(C)Cc2cc(F)c(Cl)cc2N4)CC1 [Compound 6] | > 80 | > 80 | > 80 |  |  | 60 to 80 | > 80
15 | COc1cc2ncnc3c2cc1OCCCN(CCCN1CCOCC1)C(=O)[C@H](CC(C)C)NC(=O)Cc1ccc(Br)cc1N3 [Int. 25] | 30 to 60 | 30 to 60 | 60 to 80 | 10 to 30 | 30 to 60 | 30 to 60 | > 80
16 | CC(=O)NCCNCCCOc1cc2ncnc3c2cc1OCCCNC(=O)[C@H](C)N(C)Cc1cc(F)c(Cl)cc1N3 [Compound 4] | > 80 | 60 to 80 |  | 30 to 60 | > 80 | 30 to 60 | > 80
